In paper PMC7486443, “Generation of Phenothiazine with Potent Anti-TLK1 Activity for Prostate Cancer Therapy” (iScience, 2020):

What was measured:
Test in all cases: biochemical
Parameters in all cases: DiscoverX KINOMEscan scanMAX competition binding panel, single concentration, percent of control; remaining binding: dose or concentration left out as unconfirmed
Settings in all cases: KINOMEscan binding, percent of control; read-out: Table S4_SCANMAX REPORT - related to Fig. 1 / Percent Control
CAMK1D = CAMK1D (Homo sapiens, UniProt Q8IU85)
Sequence of CAMK1D (Q8IU85 whole entry): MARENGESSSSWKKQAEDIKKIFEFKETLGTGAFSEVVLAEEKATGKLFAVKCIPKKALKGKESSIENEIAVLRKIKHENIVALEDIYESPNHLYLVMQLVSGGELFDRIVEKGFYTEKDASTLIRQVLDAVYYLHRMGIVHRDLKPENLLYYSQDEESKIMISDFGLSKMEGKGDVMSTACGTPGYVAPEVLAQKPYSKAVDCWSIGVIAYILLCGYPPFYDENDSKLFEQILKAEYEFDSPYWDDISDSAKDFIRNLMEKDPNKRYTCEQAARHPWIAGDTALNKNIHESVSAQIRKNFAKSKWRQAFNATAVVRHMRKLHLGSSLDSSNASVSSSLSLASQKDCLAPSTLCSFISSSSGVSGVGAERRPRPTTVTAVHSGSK

CAMK2B = CAMK2B (Homo sapiens, UniProt Q13554)
Sequence of CAMK2B (Q13554 whole entry): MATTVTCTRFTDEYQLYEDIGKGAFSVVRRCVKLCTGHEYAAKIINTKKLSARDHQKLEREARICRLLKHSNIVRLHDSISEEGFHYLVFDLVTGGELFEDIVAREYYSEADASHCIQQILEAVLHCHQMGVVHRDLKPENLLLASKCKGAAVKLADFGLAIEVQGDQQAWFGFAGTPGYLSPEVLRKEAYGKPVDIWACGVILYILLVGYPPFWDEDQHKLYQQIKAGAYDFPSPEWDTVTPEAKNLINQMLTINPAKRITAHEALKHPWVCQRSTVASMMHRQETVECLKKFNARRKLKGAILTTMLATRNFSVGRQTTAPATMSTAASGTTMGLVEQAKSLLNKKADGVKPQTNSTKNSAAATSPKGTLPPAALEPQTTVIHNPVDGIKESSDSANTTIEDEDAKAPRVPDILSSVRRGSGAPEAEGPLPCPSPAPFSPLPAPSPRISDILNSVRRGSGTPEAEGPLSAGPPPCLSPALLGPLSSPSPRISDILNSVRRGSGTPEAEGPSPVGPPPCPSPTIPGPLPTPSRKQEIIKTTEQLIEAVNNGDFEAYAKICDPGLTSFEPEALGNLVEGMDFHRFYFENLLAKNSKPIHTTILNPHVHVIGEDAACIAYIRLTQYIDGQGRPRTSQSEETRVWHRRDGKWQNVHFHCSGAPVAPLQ

CAMK4 = CAMK4 (Homo sapiens, UniProt Q16566)
Sequence of CAMK4 (Q16566 whole entry): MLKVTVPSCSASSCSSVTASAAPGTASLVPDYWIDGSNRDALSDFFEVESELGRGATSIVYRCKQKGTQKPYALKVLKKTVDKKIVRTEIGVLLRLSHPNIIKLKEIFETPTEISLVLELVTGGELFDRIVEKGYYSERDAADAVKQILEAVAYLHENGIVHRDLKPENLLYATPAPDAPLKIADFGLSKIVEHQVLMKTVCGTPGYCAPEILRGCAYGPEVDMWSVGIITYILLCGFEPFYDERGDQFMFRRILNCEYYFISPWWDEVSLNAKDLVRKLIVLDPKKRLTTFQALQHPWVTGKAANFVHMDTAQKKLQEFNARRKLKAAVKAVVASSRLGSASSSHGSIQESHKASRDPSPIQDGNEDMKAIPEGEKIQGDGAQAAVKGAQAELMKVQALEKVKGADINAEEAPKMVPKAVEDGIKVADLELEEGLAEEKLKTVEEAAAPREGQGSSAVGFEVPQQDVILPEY

CDK5 = CDK5 (Homo sapiens, UniProt Q00535)
CLK3 = CLK3 (Homo sapiens, UniProt P49761)
Sequence of CLK3 (P49761 whole entry): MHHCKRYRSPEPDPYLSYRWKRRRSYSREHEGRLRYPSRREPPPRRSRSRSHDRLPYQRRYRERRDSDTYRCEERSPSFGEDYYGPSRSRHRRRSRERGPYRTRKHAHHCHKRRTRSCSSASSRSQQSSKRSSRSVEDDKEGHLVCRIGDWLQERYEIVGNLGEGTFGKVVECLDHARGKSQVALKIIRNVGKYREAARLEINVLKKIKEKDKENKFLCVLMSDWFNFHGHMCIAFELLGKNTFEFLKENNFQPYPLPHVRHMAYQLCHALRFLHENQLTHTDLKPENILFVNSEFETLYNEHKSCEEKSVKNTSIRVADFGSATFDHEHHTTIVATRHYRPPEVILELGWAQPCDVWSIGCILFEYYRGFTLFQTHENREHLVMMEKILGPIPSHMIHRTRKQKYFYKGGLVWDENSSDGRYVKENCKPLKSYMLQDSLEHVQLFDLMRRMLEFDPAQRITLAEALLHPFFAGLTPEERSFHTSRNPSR

[1] = molecular target: EGFR(L747-E749del, A750P) (Homo sapiens, UniProt P00533, A750P/DEL747-749)
Sequence of EGFR(L747-E749del, A750P) (P00533 with tags, fused parts or gaps DEL747-749/A750P): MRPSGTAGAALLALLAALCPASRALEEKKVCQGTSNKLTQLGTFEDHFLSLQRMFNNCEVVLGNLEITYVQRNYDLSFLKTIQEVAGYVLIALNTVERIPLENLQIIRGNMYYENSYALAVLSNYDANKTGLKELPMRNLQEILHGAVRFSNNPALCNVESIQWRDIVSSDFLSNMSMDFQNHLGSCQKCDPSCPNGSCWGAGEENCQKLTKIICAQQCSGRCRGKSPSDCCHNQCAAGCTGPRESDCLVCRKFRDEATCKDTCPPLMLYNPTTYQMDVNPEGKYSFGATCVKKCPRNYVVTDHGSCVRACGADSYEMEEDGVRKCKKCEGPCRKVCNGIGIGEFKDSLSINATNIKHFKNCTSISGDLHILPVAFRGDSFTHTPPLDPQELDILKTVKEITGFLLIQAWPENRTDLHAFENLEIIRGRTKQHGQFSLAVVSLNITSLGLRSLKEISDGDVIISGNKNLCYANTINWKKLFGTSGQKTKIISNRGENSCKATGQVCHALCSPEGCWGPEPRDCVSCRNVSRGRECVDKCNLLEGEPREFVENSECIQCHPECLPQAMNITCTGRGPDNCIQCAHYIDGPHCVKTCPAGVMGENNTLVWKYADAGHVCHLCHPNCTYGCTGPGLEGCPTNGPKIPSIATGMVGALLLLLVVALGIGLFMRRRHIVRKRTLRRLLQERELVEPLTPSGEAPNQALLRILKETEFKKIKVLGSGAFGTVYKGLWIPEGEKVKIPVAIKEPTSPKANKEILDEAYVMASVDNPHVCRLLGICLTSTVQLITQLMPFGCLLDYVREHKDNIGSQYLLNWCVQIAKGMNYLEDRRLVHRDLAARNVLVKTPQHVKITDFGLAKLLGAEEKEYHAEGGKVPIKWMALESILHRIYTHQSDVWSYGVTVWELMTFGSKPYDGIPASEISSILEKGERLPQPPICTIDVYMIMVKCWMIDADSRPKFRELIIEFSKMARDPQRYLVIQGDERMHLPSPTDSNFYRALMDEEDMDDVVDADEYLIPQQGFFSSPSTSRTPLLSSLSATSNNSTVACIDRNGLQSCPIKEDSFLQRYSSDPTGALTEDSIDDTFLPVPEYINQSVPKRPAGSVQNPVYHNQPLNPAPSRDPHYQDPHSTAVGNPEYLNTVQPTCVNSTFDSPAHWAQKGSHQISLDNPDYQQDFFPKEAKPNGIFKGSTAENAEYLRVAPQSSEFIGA

FLT3(D835Y) = FLT3(D835Y) (Homo sapiens, UniProt P36888, D835Y)
LRRK2(G2019S) = LRRK2(G2019S) (Homo sapiens, UniProt Q5S007, G2019S)
MKNK1 = MKNK1 (Homo sapiens, UniProt Q9BUB5)
Sequence of MKNK1 (Q9BUB5 whole entry): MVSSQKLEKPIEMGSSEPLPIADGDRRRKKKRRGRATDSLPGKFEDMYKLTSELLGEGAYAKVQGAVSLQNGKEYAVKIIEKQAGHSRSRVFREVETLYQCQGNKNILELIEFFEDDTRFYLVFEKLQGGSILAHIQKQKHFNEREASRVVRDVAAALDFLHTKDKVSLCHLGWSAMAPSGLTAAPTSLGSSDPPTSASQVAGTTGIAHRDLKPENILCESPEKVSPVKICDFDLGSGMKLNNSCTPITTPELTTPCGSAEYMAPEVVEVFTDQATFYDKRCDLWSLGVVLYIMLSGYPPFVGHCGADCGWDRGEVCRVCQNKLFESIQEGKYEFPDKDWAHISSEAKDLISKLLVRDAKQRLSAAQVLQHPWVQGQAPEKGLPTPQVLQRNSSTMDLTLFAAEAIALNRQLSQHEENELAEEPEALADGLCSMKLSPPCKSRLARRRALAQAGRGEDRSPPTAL

MYO3A = MYO3A (Homo sapiens, UniProt Q8NEV4)
NIK = molecular target: T1, NIK (Homo sapiens, UniProt Q99558)
T1 construct: gene MAP3K14

PDGFRB = PDGFRB (Homo sapiens, UniProt P09619)
PDPK1 = PDPK1 (Homo sapiens, UniProt O15530)
PIP5K1A = PIP5K1A (Homo sapiens, UniProt Q99755)
PLK2 = PLK2 (Homo sapiens, UniProt Q9NYY3)
Sequence of PLK2 (Q9NYY3 whole entry): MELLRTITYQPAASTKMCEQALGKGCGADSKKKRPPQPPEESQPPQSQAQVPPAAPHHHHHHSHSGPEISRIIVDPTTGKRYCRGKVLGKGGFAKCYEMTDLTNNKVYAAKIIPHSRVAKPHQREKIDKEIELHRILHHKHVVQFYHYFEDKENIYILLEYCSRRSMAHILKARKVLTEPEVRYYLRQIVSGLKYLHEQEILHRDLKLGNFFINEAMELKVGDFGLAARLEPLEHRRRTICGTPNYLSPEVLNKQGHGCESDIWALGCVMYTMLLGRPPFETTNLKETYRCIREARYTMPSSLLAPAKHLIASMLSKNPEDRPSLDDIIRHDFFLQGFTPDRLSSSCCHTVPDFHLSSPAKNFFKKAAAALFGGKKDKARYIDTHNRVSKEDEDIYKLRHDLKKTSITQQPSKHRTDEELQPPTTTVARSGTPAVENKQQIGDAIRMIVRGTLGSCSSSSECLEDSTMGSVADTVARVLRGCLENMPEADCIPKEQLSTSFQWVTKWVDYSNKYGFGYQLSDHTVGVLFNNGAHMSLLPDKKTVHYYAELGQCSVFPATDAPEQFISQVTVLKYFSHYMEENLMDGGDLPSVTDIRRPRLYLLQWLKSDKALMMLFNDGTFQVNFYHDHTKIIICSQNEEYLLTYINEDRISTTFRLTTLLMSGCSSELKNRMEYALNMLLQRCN

SBK1 = SBK1 (Homo sapiens, UniProt Q52WX2)
p38-beta = molecular target: T2, p38-beta (Homo sapiens, UniProt Q15759)
T2 construct: gene MAPK11

p38-delta = molecular target: T3, p38-delta (Homo sapiens, UniProt O15264)
T3 construct: gene MAPK13
T3 sequence (O15264 whole entry): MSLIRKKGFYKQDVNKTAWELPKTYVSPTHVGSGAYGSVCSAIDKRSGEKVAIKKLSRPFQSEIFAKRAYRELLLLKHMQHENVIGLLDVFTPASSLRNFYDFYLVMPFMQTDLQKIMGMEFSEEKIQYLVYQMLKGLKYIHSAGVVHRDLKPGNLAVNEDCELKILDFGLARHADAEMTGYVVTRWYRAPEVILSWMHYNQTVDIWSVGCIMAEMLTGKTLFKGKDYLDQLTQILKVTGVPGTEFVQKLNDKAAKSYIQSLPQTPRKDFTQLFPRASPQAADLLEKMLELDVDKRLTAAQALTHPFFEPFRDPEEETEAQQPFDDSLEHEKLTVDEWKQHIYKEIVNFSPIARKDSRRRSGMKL

Structure (SMILES): c1ccc2c(c1)Sc1ccccc1N2CCN1CCOCC1 [J54]
- remaining binding (CAMK1D): 85%
- remaining binding (CAMK2B): 93%
- remaining binding (CAMK4): 94%
- remaining binding (CDK5): 99%
- remaining binding (CLK3): 92%
- remaining binding [1]: 90%
- remaining binding (FLT3(D835Y)): 79%
- remaining binding (LRRK2(G2019S)): 38%
- remaining binding (MKNK1): 92%
- remaining binding (MYO3A): 100%
- remaining binding (NIK): 100%
- remaining binding (PDGFRB): 100%
- remaining binding (PDPK1): 92%
- remaining binding (PIP5K1A): 46%
- remaining binding (PLK2): 100%
- remaining binding (SBK1): 93%
- remaining binding (p38-beta): 100%
- remaining binding (p38-delta): 100%
